Entries after “also recorded” stand apart in the source; their conditions may differ.
Key:
[1] = test system: HCV replicon; test: IC50 assay with HCV luciferase replicon cell-line; type: cell-based; details: Hepatitis C virus, Huh-7; Huh7 cell line containing HCV replicon with luciferase reporter, 48 h
Source text: Plating Cells: The cells used in these assays were a liver-derived Huh7 cell line containing an HCV replicon bearing a luciferase reporter gene. The Huh7 cell-line can be obtained from various sources including the Japanese Collection of Research Bioresources (JCRB), Osaka, Japan. The Huh7 cell line containing an HCV replicon bearing a luciferase reporter gene can be prepared essentially as described by Vrolijk J M, et al. (J Virol Methods. (2003) 110(2):201-9). Cells were passaged when they reached about 70% confluency.
These 0.5 mM dilutions were then used to further serially dilute the compounds in DMEM+2% FBS+0.5% DMSO to keep the concentration of DMSO in each condition identical.
The Glo Lysis Buffer and the Bright Glow reagent was allowed to warm to room temperature for about 30 min in the dark. […] The media was removed from cells, and the cells were gently washed with about 100 μL of phosphate buffered saline (PBS). […] It should be noted that luciferin has a half-life of approximately 30 min at room temperature after it is added to the plate. […] The data was saved and used to calculate the percent inhibition of luciferase activity at each drug concentration. […] Curve equation: (m1−m2)/(1+(x/m3)^m4); m1=100; m2=0.01; m3=0.01; m4=0.01; the equation is: […]

[2] = Stability test at different pH conditions (HPLC); type: physicochemical
Procedure: HPLC analysis: 100 μl of the incubated solution was loaded onto a Vydac C18 analytical column 4.6/250, and the mobile phase run at 1 mL/min water with the following procedures: a. Inject 100 μl the incubated solution; b. Water for 5 minutes at 1 ml/min; c. 0-100% acetonitrile over 30 minutes; d. Back to 100% water.
Analysis: Standard HPLC analysis software was used to quantitate the area under each peak. Degradation peaks were quantitated as a percentage of the peak of the same amount of control sample (no heat treatment).

[3] = test system: PK9 cells; test: TC50 assay, effect of deficient deoxycytidine kinase activity, PK9 cells; type: cell-based; details: Homo sapiens, 48 h, read-out: TC50 (μM), 48 h treatment
Procedure: (§1) Plating Cells: PK9 or RPK9 cells were seeded in 96-well plates at a density of 2,500 cells/well or 2,500 cells/well, respectively, and the plates were incubated at 37° C. for 24 h to allow for cell attachment.
(§2) Treating with Control & Compound 1: The cells were treated with each compound at final concentrations ranging from 500 μM to 0 μM in triplicate in media containing 2% FBS and 0.5% DMSO.
(§3) The RPK9 cells are described in Saiki, T., et al. (2012) Biochim. Biophys. Res. Commun. 421, 98-104).

[4] = test system: RPK9 cells; test: cells; details: Homo sapiens, 48 h, read-out: TC50 (μM), 48 h treatment
Procedure: as §1, §2, §3

[5] = test system: Huh7; test: TC50 assay in different human cell lines (96 h), Huh7; type: cell-based; details: Huh-7, about 96 h, MTS assay
Procedure: (§4) The 96-well plate with cells incubated with test compound was removed from the 37° C. incubator. The appropriate amounts of the MTS and PMS reagents were removed from the kit and mixed well. The reagents were maintained in the dark due to their light sensitivity. […] The solutions were mixed completely in the wells prior to each reading.
(§5) Plating Cells: Huh7, HEPG2, HEK293, MCF-7, or BxPC3 cells (which can be obtained from American Type Culture Collection, ATCC) were passaged when they were about 70% confluent. […] The cells following passaging were allowed to attach for about 24 hours at 37° C.
(§6) The plates were then returned to the incubator, and cells incubated for about 96 h at 37° C.
(§7) MTS Assay: Assay was carried out as described above.

[6] = test system: HEPG2; test: TC50 assay in different human cell lines (96 h), HEPG2; type: cell-based; details: about 96 h, MTS assay
Procedure: as §4, §5, §6, §7

[7] = test system: MCF-7; test: TC50 assay in different human cell lines (96 h), MCF-7; type: cell-based; details: MCF7, about 96 h, MTS assay
Procedure: as §4, §5, §6, §7

[8] = test system: CD-1 ICR mice; test: In vivo toxicology assessment
Procedure: All in vivo toxicology assays were performed with CD-1 ICR mice (female, 4-6 week old; 20-30 gram body weight). Groups of one to five mice were treated at each dose level. In one study, compound 1 was prepared at concentrations ranging from 0.1 mg/mL to 30 mg/mL in dimethyl sulfoxide (DMSO) and 200 μL of each solution was administered via oral gavage to mice at final doses of 0.67, 2.0, 6.7, 20, 67 and 200 mg/kg.
A second study was carried out using a different vehicle. As above, CD-1 ICR mice (female, 4-6 week old; 20-30 gram body weight) were used. Groups of one to five mice were treated at each dose level. Compound 1 was prepared in Formulation I (5% DMSO/10% Solutol/17% (2-Hydroxypropyl)-β-cyclodextrin in aqueous solution) at concentrations ranging from 0.03 mg/mL to 1.0 mg/mL, and administered orally. Briefly, mice were treated with 200 μL of compound 1 in Formulation I via oral gavage at final doses of 2.4 mg/kg and 8.0 mg/kg. In a parallel study, compound 1 was administered intravenously. Briefly, mice were injected with 100 μL of compound 1 in Formulation I at final doses ranging from 0.12 mg/kg to 4.0 mg/kg.

[9] = In vivo pharmacokinetic assessment (LC-MS/MS, plasma and liver); details: mice, oral
Procedure: All pharmacokinetic studies were performed with CD-1 ICR mice (female, 4-6 week old; 20-30 gram body weight), and three mice were used at each dose level and at each time point for each compound tested. […] Tetrahydrouridine (THU) was immediately added to plasma samples at a final concentration of 25 μg/mL to prevent deamination of dFdC after collection, and the samples were subsequently flash-frozen and stored at −80° C. until analysis. Approximately 200-300 mg of each mouse liver was dissected and homogenized in 150 μL of phosphate buffered saline (PBS) containing 25 μg/mL THU, resulting in 2 mg liver/μL saline homogenate. These liver homogenates were also flash-frozen and stored at −80° C. until analysis. Equivalent amounts of blood plasma and liver tissue were also collected from untreated mice and used to prepare calibration standards and quality controls. An LC-MS/MS assay was utilized to simultaneously quantify the concentrations of compound 1, dFdC and dFdU in each of the plasma and liver samples.

SMILES: O=C(Nc1ccn(C2O[C@H](CO)[C@@H](O)C2(F)F)c(=O)n1)c1ccc2c(c1)OCO2 (stereo partly drawn) [Compound 1, N-(1-((4R,5R)-3,3-difluoro-4-hydroxy-5-(hydroxymethyl)tetrahydrofuran-2-yl)-2-oxo-1,2-dihydropyrimidin-4-yl)benzo[d][1,3]dioxole-5-carboxamide]
- IC50 [1]: 60 ± 8 nM
- Compound remaining (%) ([2]; Pretreatment): 100%
- Compound remaining (%) ([2]; pH 1, 40° C., 4 h): 64%
- Compound remaining (%) ([2]; pH 2, 40° C., 4 h): 100%
- Compound remaining (%) ([2]; pH 4, 40° C., 4 h): 100%
- Compound remaining (%) ([2]; pH 6, 40° C., 4 h): 100%
- Compound remaining (%) ([2]; pH 8, 40° C., 4 h): 92%
- CC50 [3]: 1.63 ± 0.1 µM
- CC50 [4]: > 500 µM
- CC50 [5]: 7040 nM
- CC50 [6]: 2810 nM
- CC50 [7]: 1190 nM
- tolerability / toxicity ([8]; IV in Formulation I, 0.12 to 4.0 mg/kg, 48 hour observation): well-tolerated and no toxicity was observed
- tolerability / toxicity ([8]; oral gavage in DMSO, 0.67-200 mg/kg, 24 hour observation): well-tolerated and no toxicity was observed
- tolerability / toxicity ([8]; oral gavage in Formulation I, 2.4 and 8.0 mg/kg, 48 hour observation): well-tolerated and no toxicity was observed
- distribution of gemcitabine produced by hydrolysis, liver versus plasma [9]: higher concentration in the liver than in plasma
- linearity of dFdC exposure vs. compound 1 dosage ([9]; 1.0-8.0 mg/kg): linear pharmacokinetics
- Liver AUCobs of compound 1 ([9]; dose 1.0 mg/kg): 1.10 µmol·min/L
- Plasma AUCobs of compound 1 ([9]; dose 1.0 mg/kg): 0.95 µmol·min/L
- Plasma AUCobs of dFdC converted from compound 1 ([9]; dose 1.0 mg/kg): 0.26 µmol·min/L
- Liver AUCobs of compound 1 ([9]; dose 4.0 mg/kg): 7.84 µmol·min/L
- Plasma AUCobs of compound 1 ([9]; dose 4.0 mg/kg): 3.45 µmol·min/L
- Plasma AUCobs of dFdC converted from compound 1 ([9]; dose 4.0 mg/kg): 5.03 µmol·min/L
- Liver AUCobs of compound 1 ([9]; dose 8.0 mg/kg): 9.53 µmol·min/L
- Plasma AUCobs of compound 1 ([9]; dose 8.0 mg/kg): 3.71 µmol·min/L
- Plasma AUCobs of dFdC converted from compound 1 ([9]; dose 8.0 mg/kg): 9.45 µmol·min/L
- first-pass metabolism to inactive metabolite dFdU ([9]; plasma and liver samples): less of the inactive metabolite dFdU; also recorded: reduced first pass metabolism to the inactive metabolite dFdU

From US10000521B2 (priority 2013, dated 2018)
